Data from patent US7759101B2, “Ginsenoside glycosidases hydrolyzing ginsenoside sugar moieties and uses thereof” (priority 2000, dated 2010).

Tests used:
[1] = tested on: ginsenoside glycosidases from A. niger; assay: Hydrolysis of ginsenosides with crude ginsenoside glycosidases from A. niger, products measured by TLC; assay type: biochemical, Aspergillus niger
Method in brief: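 Crude enzyme from A. niger culture (1% ginseng extract, 3% wheat bran, 30° C., 54 h), 65% ammonium sulfate precipitate dialysed into 0.01 M acetate pH 5. Ginsenosides (100 mg; Rg3 10 mg) in 10 ml buffer plus 10 ml enzyme, 30° C., 18 h; stopped with n-butanol, products analysed by silica TLC.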

[2] = tested on: Almond cellulose β-glucosidase(EC 3.2.1.21); assay: Comparison: hydrolysis of ginsenosides with almond cellulose β-glucosidase; assay type: biochemical; conditions: substrate 0.5%, pH 5.0, 30° C., 18 hours
Source text: (§1) To observe the differences between the ginsenoside glycosidases of the invention and known exo-cellulases, the ginsenoside glycosidases of the invention were compared with cellulose β-glucosidase (E.C. 3.2.1.21) in two reactions with 0.5% ginsenosides Rb1 or Rd as substrate.

[3] = tested on: Cellulose β-glucosidase of Clostridium and Bacillus (EC 3.2.1.21); assay: Comparison: hydrolysis of ginsenosides with cellulose β-glucosidase of Clostridium and Bacillus; assay type: biochemical, Clostridium thermocopiriae and Bacillus sp. AX; conditions: substrate 0.5%, pH 5.0, 30° C., 18 hours
Source text: as §1
Cellulose β-glucosidases (EC 3.2.1.21) from Clostridium thermocopiriae and Bacillus sp. AX cannot hydrolyze any glycosides of ginsenosides. The cellulose β-glucosidase from almond slightly hydrolyzes the C-20 glycoside of Rb1, Rb2 and Rc to give ginsenoside Rd, but it cannot hydrolyze the glucoside at C-3. Ginsenoside glycosidase II is similar to cellulose β-glucosidase from almond, but it only slightly hydrolyzes Rd. The properties of ginsenoside glycosidase III are totally different from those of cellulose β-glucosidases.

[4] = tested on: Cellobiose-producing enzyme from Clostridium; assay: Comparison: hydrolysis of ginsenosides with cellobiose-producing enzyme; assay type: biochemical, Clostridium thermocopiriae; conditions: substrate 0.5%, pH 5.0, 30° C., 18 hours
Source text: as §1
An exo-cellulase from Clostridium thermocopiriae (cellobiose-producing enzyme) cleaves cellodextrin to give cellobiose, but cannot hydrolyze diglucosidic bond at C-3 of ginsenoside Rd. So it is completely different from ginsenoside glycosidase III. Therefore, the ginsenoside glycosidases of the invention are enzymes different from known cellulose β-glucosidases and cellobiose-producing enzymes.

[5] = tested on: ginsenoside glycosidases from wheat bran; assay: Hydrolysis of ginsenosides with ginsenoside glycosidases from wheat bran; assay type: biochemical; conditions: 10 ml of 1% ginsenoside substrate, 40° C., 20 hours
[6] = Rb1 0.5%, 20° C., pH 5.0, 18 hours
[7] = Rb1 0.5%, 30° C., pH 5.0, 18 hours
[8] = Rb1 0.5%, 40° C., pH 5.0, 18 hours
[9] = Rb1 0.5%, 50° C., pH 5.0, 18 hours
[10] = Rb1 0.5%, 60° C., pH 5.0, 18 hours
[11] = Rb1 0.5%, 70° C., pH 5.0, 18 hours
[12] = Rb1 0.5%, Ca^++ 50 mM, pH 5.0, 30°C.
[13] = Rb1 0.5%, Ca^++ 100 mM, pH 5.0, 30°C.
[14] = Rb1 0.5%, Cu^++ 100 mM, pH 5.0, 30°C.
[15] = Rb1 0.5%, Mg^++ 50 mM, pH 5.0, 30°C.
[16] = Rb1 0.5%, Mg^++ 100 mM, pH 5.0, 30°C.
[17] = Rb1 0.5%, No ion, pH 5.0, 30°C.
[18] = Rb1 0.5%, Pb^++ 100 mM, pH 5.0, 30°C.
[19] = Rb1 0.5%, pH 3.0, 30° C., 18 hours
[20] = Rb1 0.5%, pH 4.0, 30° C., 18 hours
[21] = Rb1 0.5%, pH 5.0, 30° C., 18 hours
[22] = Rb1 0.5%, pH 6.0, 30° C., 18 hours
[23] = Rb1 0.5%, pH 7.0, 30° C., 18 hours
[24] = Rb1 0.5%, pH 8.0, 30° C., 18 hours
[25] = Rb1 0.5%, reaction time 1 hours, pH 5, 30° C.
[26] = Rb1 0.5%, reaction time 4 hours, pH 5, 30° C.
[27] = Rb1 0.5%, reaction time 8 hours, pH 5, 30° C.
[28] = Rb1 0.5%, reaction time 12 hours, pH 5, 30° C.
[29] = Rb1 0.5%, reaction time 18 hours, pH 5, 30° C.
[30] = Rb1 0.5%, reaction time 24 hours, pH 5, 30° C.
[31] = Rb1 0.5%, reaction time 30 hours, pH 5, 30° C.
[32] = Rb1 0.5%, reaction time 36 hours, pH 5, 30° C.

Structure (SMILES): CC(C)=CCC[C@](C)(O[C@@H]1O[C@H](CO[C@@H]2O[C@H](CO)[C@@H](O)[C@H](O)[C@H]2O)[C@@H](O)[C@H](O)[C@H]1O)[C@H]1CC[C@]2(C)[C@@H]1[C@H](O)C[C@@H]1[C@@]3(C)CC[C@H](O[C@@H]4O[C@H](CO)[C@@H](O)[C@H](O)[C@H]4O[C@@H]4O[C@H](CO)[C@@H](O)[C@H](O)[C@H]4O)C(C)(C)[C@@H]3CC[C@]12C [Rb1, ginsenoside Rb1]
- Percentage of C—K in the reaction product [1, 6]: 10%
- Percentage of F2 in the reaction product [1, 6]: 15%
- Percentage of Rb1 in the reaction product [1, 6]: 25%
- Percentage of Rd in the reaction product [1, 6]: 50%
- Percentage of C—K in the reaction product [1, 7]: 16%
- Percentage of F2 in the reaction product [1, 7]: 63%
- Percentage of Rb1 in the reaction product [1, 7]: 1%
- Percentage of Rd in the reaction product [1, 7]: 10%
- Percentage of Rh2 in the reaction product [1, 7]: 5%
- Percentage of aglycone in the reaction product [1, 7]: 5%
- Percentage of C—K in the reaction product [1, 8]: 34%
- Percentage of F2 in the reaction product [1, 8]: 50%
- Percentage of Rd in the reaction product [1, 8]: 5%
- Percentage of Rh2 in the reaction product [1, 8]: 6%
- Percentage of aglycone in the reaction product [1, 8]: 5%
- Percentage of C—K in the reaction product [1, 9]: 42%
- Percentage of F2 in the reaction product [1, 9]: 40%
- Percentage of Rd in the reaction product [1, 9]: 5%
- Percentage of Rh2 in the reaction product [1, 9]: 4%
- Percentage of aglycone in the reaction product [1, 9]: 4%
- Percentage of C—K in the reaction product [1, 10]: 6%
- Percentage of F2 in the reaction product [1, 10]: 10%
- Percentage of Rb1 in the reaction product [1, 10]: 30%
- Percentage of Rd in the reaction product [1, 10]: 50%
- Percentage of Rh2 in the reaction product [1, 10]: 2%
- Percentage of aglycone in the reaction product [1, 10]: 2%
- Percentage of Rb1 in the reaction product [1, 11]: 82%
- Percentage of Rd in the reaction product [1, 11]: 18%
- Percentage of C—K in the reaction product [1, 12]: 20%
- Percentage of F2 in the reaction product [1, 12]: 65%
- Percentage of Rd in the reaction product [1, 12]: 4%
- Percentage of Rh2 in the reaction product [1, 12]: 7%
- Percentage of aglycone in the reaction product [1, 12]: 4%
- Percentage of C—K in the reaction product [1, 13]: 21%
- Percentage of F2 in the reaction product [1, 13]: 67%
- Percentage of Rh2 in the reaction product [1, 13]: 7%
- Percentage of aglycone in the reaction product [1, 13]: 5%
- Percentage of C—K in the reaction product [1, 14]: 10%
- Percentage of F2 in the reaction product [1, 14]: 30%
- Percentage of Rb1 in the reaction product [1, 14]: 30%
- Percentage of Rd in the reaction product [1, 14]: 30%
- Percentage of C—K in the reaction product [1, 15]: 17%
- Percentage of F2 in the reaction product [1, 15]: 65%
- Percentage of Rd in the reaction product [1, 15]: 6%
- Percentage of Rh2 in the reaction product [1, 15]: 7%
- Percentage of aglycone in the reaction product [1, 15]: 5%
- Percentage of C—K in the reaction product [1, 16]: 21%
- Percentage of F2 in the reaction product [1, 16]: 67%
- Percentage of Rh2 in the reaction product [1, 16]: 8%
- Percentage of aglycone in the reaction product [1, 16]: 4%
- Percentage of C—K in the reaction product [1, 17]: 16%
- Percentage of F2 in the reaction product [1, 17]: 63%
- Percentage of Rd in the reaction product [1, 17]: 10%
- Percentage of Rh2 in the reaction product [1, 17]: 5%
- Percentage of aglycone in the reaction product [1, 17]: 2%
- Percentage of C—K in the reaction product [1, 18]: 1%
- Percentage of F2 in the reaction product [1, 18]: 9%
- Percentage of Rb1 in the reaction product [1, 18]: 70%
- Percentage of Rd in the reaction product [1, 18]: 20%
- Percentage of C—K in the reaction product [1, 19]: 40%
- Percentage of F2 in the reaction product [1, 19]: 30%
- Percentage of Rb1 in the reaction product [1, 19]: 2%
- Percentage of Rd in the reaction product [1, 19]: 20%
- Percentage of Rh2 in the reaction product [1, 19]: 8%
- Percentage of aglycone in the reaction product [1, 19]: 10%
- Percentage of C—K in the reaction product [1, 20]: 39%
- Percentage of F2 in the reaction product [1, 20]: 43%
- Percentage of Rb1 in the reaction product [1, 20]: 1%
- Percentage of Rd in the reaction product [1, 20]: 10%
- Percentage of Rh2 in the reaction product [1, 20]: 7%
- Percentage of aglycone in the reaction product [1, 20]: 5%
- Percentage of C—K in the reaction product [1, 21]: 16%
- Percentage of F2 in the reaction product [1, 21]: 63%
- Percentage of Rd in the reaction product [1, 21]: 10%
- Percentage of Rh2 in the reaction product [1, 21]: 5%
- Percentage of aglycone in the reaction product [1, 21]: 5%
- Percentage of C—K in the reaction product [1, 22]: 21%
- Percentage of F2 in the reaction product [1, 22]: 56%
- Percentage of Rd in the reaction product [1, 22]: 15%
- Percentage of Rh2 in the reaction product [1, 22]: 4%
- Percentage of aglycone in the reaction product [1, 22]: 4%
- Percentage of C—K in the reaction product [1, 23]: 6%
- Percentage of F2 in the reaction product [1, 23]: 41%
- Percentage of Rb1 in the reaction product [1, 23]: 10%
- Percentage of Rd in the reaction product [1, 23]: 41%
- Percentage of Rg3 in the reaction product [1, 23]: 2%
- Percentage of Rh2 in the reaction product [1, 23]: 2%
- Percentage of aglycone in the reaction product [1, 23]: 2%
- Percentage of C—K in the reaction product [1, 24]: 6%
- Percentage of F2 in the reaction product [1, 24]: 36%
- Percentage of Rb1 in the reaction product [1, 24]: 20%
- Percentage of Rd in the reaction product [1, 24]: 45%
- Percentage of Rg3 in the reaction product [1, 24]: 3%
- Percentage of Rb1 in the reaction product [1, 25]: 38%
- Percentage of Rd in the reaction product [1, 25]: 62%
- Percentage of F2 in the reaction product [1, 26]: 10%
- Percentage of Rb1 in the reaction product [1, 26]: 12%
- Percentage of Rd in the reaction product [1, 26]: 72%
- Percentage of C—K in the reaction product [1, 27]: 2%
- Percentage of F2 in the reaction product [1, 27]: 38%
- Percentage of Rb1 in the reaction product [1, 27]: 8%
- Percentage of Rd in the reaction product [1, 27]: 51%
- Percentage of C—K in the reaction product [1, 28]: 6%
- Percentage of F2 in the reaction product [1, 28]: 54%
- Percentage of Rb1 in the reaction product [1, 28]: 6%
- Percentage of Rd in the reaction product [1, 28]: 30%
- Percentage of Rh2 in the reaction product [1, 28]: 2%
- Percentage of aglycone in the reaction product [1, 28]: 2%
- Percentage of C—K in the reaction product [1, 29]: 16%
- Percentage of F2 in the reaction product [1, 29]: 63%
- Percentage of Rd in the reaction product [1, 29]: 10%
- Percentage of Rh2 in the reaction product [1, 29]: 5%
- Percentage of aglycone in the reaction product [1, 29]: 5%
- Percentage of C—K in the reaction product [1, 30]: 24%
- Percentage of F2 in the reaction product [1, 30]: 60%
- Percentage of Rd in the reaction product [1, 30]: 8%
- Percentage of Rh2 in the reaction product [1, 30]: 4%
- Percentage of aglycone in the reaction product [1, 30]: 4%
- Percentage of C—K in the reaction product [1, 31]: 44%
- Percentage of F2 in the reaction product [1, 31]: 40%
- Percentage of Rd in the reaction product [1, 31]: 5%
- Percentage of Rg3 in the reaction product [1, 31]: 2%
- Percentage of Rh2 in the reaction product [1, 31]: 6%
- Percentage of aglycone in the reaction product [1, 31]: 3%
- Percentage of C—K in the reaction product [1, 32]: 52%
- Percentage of F2 in the reaction product [1, 32]: 30%
- Percentage of Rd in the reaction product [1, 32]: 2%
- Percentage of Rg3 in the reaction product [1, 32]: 3%
- Percentage of Rh2 in the reaction product [1, 32]: 7%
- Percentage of aglycone in the reaction product [1, 32]: 6%
- Percentage of C—K in the reaction product ([1]; pH 5, 30° C., 18 hours): 16%
- Percentage of F2 in the reaction product ([1]; pH 5, 30° C., 18 hours): 63%
- Percentage of Rb1 in the reaction product ([1]; pH 5, 30° C., 18 hours): 1%
- Percentage of Rd in the reaction product ([1]; pH 5, 30° C., 18 hours): 10%
- Percentage of Rh2 in the reaction product ([1]; pH 5, 30° C., 18 hours): 5%
- Percentage of aglycone in the reaction product ([1]; pH 5, 30° C., 18 hours): 5%
- Percentage of Rb1 in the reaction product [2]: 80%
- Percentage of Rd in the reaction product [2]: 20%
- Percentage of Rb1 in the reaction product [3]: 100%
- Percentage of Rb1 in the reaction product [4]: 100%
- Percentage of F2 in the reaction product [5]: 55%
- Percentage of Rd in the reaction product [5]: 40%
